Measurements reported in patent US20140343000A1 (priority 2011, published 2014).

The compounds below were run on recombinant NL4-3 virus (Renilla luciferase in nef, Gag P373S; NLRluc) in MT-2 cells (assay: whole plant or invertebrate). Conditions: Renilla, NL43, luciferase activity in cells infected for 4-5 days with NLRluc recombinants, serial dilutions of inhibitor; class symbols (key in Table 1); read-out: EC50.
Assay type: cell-based, HIV
Outline: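 Inhibitor potency against the reporter virus comes from reduced luciferase activity in infected MT-2 cells exposed to a dilution series of compound over 4-5 days.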

Structure (SMILES) | EC50 [nM]
C=C(C)[C@@H]1CC[C@]2(NC(=O)[C@@H]3CC(F)(F)CN3C(=O)OC(C)(C)C)CC[C@]3(C)[C@H](CC[C@@H]4[C@@]5(C)CC=C(c6ccc(C(=O)O)cc6)C(C)(C)[C@@H]5CC[C@]43C)[C@@H]12 [Example 114, 4-((1R,3aS,5aR,5bR,7aR,11aS,11bR,13aR,13bR)-3a-((S)-1-(tert-butoxycarbonyl)-4,4-difluoropyrrolidine-2-carboxamido)-5a,5b,8,8,11a-pentamethyl-1-(prop-1-en-2-yl)-2,3,3a,4,5,5a,5b,6,7,7a,8,11,11a,11b,12,13,13a,13b-octadecahydro-1H-cyclopenta[a]chrysen-9-yl)benzoic acid] | < 100
C=C(C)[C@@H]1CC[C@]2(NC(=O)CNS(=O)(=O)c3cccs3)CC[C@]3(C)[C@H](CC[C@@H]4[C@@]5(C)CC=C(c6ccc(C(=O)O)cc6)C(C)(C)[C@@H]5CC[C@]43C)[C@@H]12 [Example 115, 4-((1R,3aS,5aR,5bR,7aR,11aS,11bR,13aR,13bR)-5a,5b,8,8,11a-pentamethyl-1-(prop-1-en-2-yl)-3a-(2-(thiophene-2-sulfonamido)acetamido)-2,3,3a,4,5,5a,5b,6,7,7a,8,11,11a,11b,12,13,13a,13b-octadecahydro-1H-cyclopenta[a]chrysen-9-yl)benzoic acid] | < 100
C=C(C)[C@@H]1CC[C@]2(NC(=O)C(CC)NC3CCS(=O)(=O)C3)CC[C@]3(C)[C@H](CC[C@@H]4[C@@]5(C)CC=C(c6ccc(C(=O)O)cc6)C(C)(C)[C@@H]5CC[C@]43C)[C@@H]12 (stereo partly drawn) [Example 116, benzoic acid, 4-[(1R,3aS,5aR,5bR,7aR,11aS,11bR,13aR,13bR)-2,3,3a,4,5,5a,5b,6,7,7a,8,11,11a,11b,12,13,13a,13b-octadecahydro-5a,5b,8,8,11a-pentamethyl-1-(1-methylethenyl)-3a-[[1-oxo-2-[(tetrahydro-1,1-dioxido-3-thienyl)amino]butyl]amino]-1H-cyclopenta[a]chrysen-9-yl]] | < 100
C=C(C)[C@@H]1CC[C@]2(NC(=O)CN3CCCCS3(=O)=O)CC[C@]3(C)[C@H](CC[C@@H]4[C@@]5(C)CC=C(c6ccc(C(=O)O)cc6)C(C)(C)[C@@H]5CC[C@]43C)[C@@H]12 [Example 117, benzoic acid, 4-[(1R,3aS,5aR,5bR,7aR,11aS,11bR,13aR,13bR)-2,3,3a,4,5,5a,5b,6,7,7a,8,11,11a,11b,12,13,13a,13b-octadecahydro-5a,5b,8,8,11a-pentamethyl-1-(1-methylethenyl)-3a-[[(tetrahydro-1,1-dioxido-2H-1,2-thiazin-2-yl)acetyl]amino]-1H-cyclopenta[a]chrysen-9-yl]] | < 100
C=C(C)[C@@H]1CC[C@]2(NC(=O)CN3CCC(F)(F)CC3)CC[C@]3(C)[C@H](CC[C@@H]4[C@@]5(C)CC=C(c6ccc(C(=O)O)cc6)C(C)(C)[C@@H]5CC[C@]43C)[C@@H]12 [Example 118, 4-((1R,3aS,5aR,5bR,7aR,11aS,11bR,13aR,13bR)-3a-(2-(4,4-difluoropiperidin-1-yl)acetamido)-5a,5b,8,8,11a-pentamethyl-1-(prop-1-en-2-yl)-2,3,3a,4,5,5a,5b,6,7,7a,8,11,11a,11b,12,13,13a,13b-octadecahydro-1H-cyclopenta[a]chrysen-9-yl)benzoic acid] | < 100
C=C(C)[C@@H]1CC[C@]2(NC(=O)CN3CCC(F)(F)C3)CC[C@]3(C)[C@H](CC[C@@H]4[C@@]5(C)CC=C(c6ccc(C(=O)O)cc6)C(C)(C)[C@@H]5CC[C@]43C)[C@@H]12 [Example 119, 4-((1R,3aS,5aR,5bR,7aR,11aS,11bR,13aR,13bR)-3a-(2-(3,3-difluoropyrrolidin-1-yl)acetamido)-5a,5b,8,8,11a-pentamethyl-1-(prop-1-en-2-yl)-2,3,3a,4,5,5a,5b,6,7,7a,8,11,11a,11b,12,13,13a,13b-octadecahydro-1H-cyclopenta[a]chrysen-9-yl)benzoic acid] | < 100
